Patent US20250122218A1, “MODULATORS OF CYSTIC FIBROSIS TRANSMEMBRANE CONDUCTANCE REGULATOR” (Vertex Pharmaceuticals Incorporated, priority 2022, published 2025)

Target: T1, CFTR in F508del/MF-HBE cells (Homo sapiens, UniProt P13569, DEL508-508)
T1 construct: human bronchial epithelial (HBE) cells derived from CF subjects heterozygous for F508del and a minimal function CFTR mutation; endogenous in cells; host or cells: primary human bronchial epithelial cells from CF subjects (F508del/MF-HBE)
Experiment: Ussing chamber assay of CFTR-mediated short-circuit currents (identification of potentiator compounds)
Type: cell-based
Settings: potentiator incubated 18-24 hours at 37° C. in combination with 10 μM corrector, in the presence of 20% human serum, CFTR-mediated ISC
Summary of the method: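 Short-circuit current was measured in Ussing chambers at 37° C, Vhold 0 mV, 30 μM apical amiloride. CFTR current was defined as the forskolin (20 μM) response relative to the current remaining after BPO/GlyH-101/inhibitor 172 (20 μM each). Before recording, cells had 18-24 h exposure to test potentiators with 10 μM corrector compound in 20% human serum.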

T1 sequence (P13569 with tags, fused parts or gaps DEL508-508): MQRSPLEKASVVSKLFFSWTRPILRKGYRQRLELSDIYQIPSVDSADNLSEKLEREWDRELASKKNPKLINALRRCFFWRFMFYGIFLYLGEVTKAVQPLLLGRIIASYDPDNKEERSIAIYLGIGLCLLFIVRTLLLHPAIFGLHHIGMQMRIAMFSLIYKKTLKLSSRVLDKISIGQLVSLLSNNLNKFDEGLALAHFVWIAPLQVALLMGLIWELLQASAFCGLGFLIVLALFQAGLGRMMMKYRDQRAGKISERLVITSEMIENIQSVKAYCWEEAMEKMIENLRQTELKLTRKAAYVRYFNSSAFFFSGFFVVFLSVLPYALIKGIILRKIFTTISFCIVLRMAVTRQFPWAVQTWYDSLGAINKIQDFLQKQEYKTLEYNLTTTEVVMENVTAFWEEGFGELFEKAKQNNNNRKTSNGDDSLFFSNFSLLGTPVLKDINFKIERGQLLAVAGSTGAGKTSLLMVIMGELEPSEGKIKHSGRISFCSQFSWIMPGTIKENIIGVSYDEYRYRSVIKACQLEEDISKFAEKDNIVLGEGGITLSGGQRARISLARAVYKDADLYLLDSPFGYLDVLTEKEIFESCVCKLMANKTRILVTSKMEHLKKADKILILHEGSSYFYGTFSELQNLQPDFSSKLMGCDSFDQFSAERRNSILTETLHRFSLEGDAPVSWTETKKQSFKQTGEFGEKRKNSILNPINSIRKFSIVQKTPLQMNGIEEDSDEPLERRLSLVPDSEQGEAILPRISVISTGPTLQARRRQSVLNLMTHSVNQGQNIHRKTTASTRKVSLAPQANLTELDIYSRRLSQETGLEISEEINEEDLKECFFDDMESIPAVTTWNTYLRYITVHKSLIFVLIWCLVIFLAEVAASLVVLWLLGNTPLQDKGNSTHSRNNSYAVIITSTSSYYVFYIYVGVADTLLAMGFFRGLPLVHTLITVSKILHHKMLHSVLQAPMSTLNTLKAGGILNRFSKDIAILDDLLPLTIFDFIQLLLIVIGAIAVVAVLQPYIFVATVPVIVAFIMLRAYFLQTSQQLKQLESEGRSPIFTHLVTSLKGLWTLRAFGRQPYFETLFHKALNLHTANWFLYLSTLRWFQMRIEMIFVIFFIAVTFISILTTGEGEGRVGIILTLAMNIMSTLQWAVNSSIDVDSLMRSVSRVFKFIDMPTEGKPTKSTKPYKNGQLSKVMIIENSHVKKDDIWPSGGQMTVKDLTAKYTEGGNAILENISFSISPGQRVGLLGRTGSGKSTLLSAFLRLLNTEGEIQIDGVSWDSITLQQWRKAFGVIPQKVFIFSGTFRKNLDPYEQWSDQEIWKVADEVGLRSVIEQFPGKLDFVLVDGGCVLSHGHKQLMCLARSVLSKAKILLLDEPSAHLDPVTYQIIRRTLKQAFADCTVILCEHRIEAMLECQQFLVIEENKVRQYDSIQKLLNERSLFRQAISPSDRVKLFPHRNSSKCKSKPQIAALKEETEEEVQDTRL

EC50 [nM]	Structure (SMILES)
< 500	CC(C)n1cc(CN2CCCCC[C@](O)(C(F)(F)F)C3=NN=C(O3)c3nc(c(C(F)(F)F)cc3N)C2=O)cn1 [Compound 128, (6R)-17-amino-6-hydroxy-12-[(1-isopropylpyrazol-4-yl)methyl]-6,1-bis (trifluoromethyl)-19-oxa-3,4,12,18-tetrazatricyclo [12.3.1.12,5] nonadeca-1(18),2,4,14,1 6-pentaen-13-one]
< 500	CC(C)n1nccc1CN1CCCCC[C@](O)(C(F)(F)F)C2=NN=C(O2)c2nc(c(C(F)(F)F)cc2N)C1=O [Compound 129, (6R)-17-amino-6-hydroxy-12-[(2-isopropylpyrazol-3-yl)methyl]-6,15-bis (trifluoromethyl)-19-oxa-3,4,12,18-tetrazatricyclo [12.3.1.12,5] nonadeca-1(18),2,4,14,1 6-pentaen-13-one]
< 500	Nc1cc(C(F)(F)F)c2nc1-c1nnc(o1)[C@@](O)(C(F)(F)F)CCCCCN(CC1CCOCC1)C2=O [Compound 132, (6R)-17-amino-6-hydroxy-12-(tetrahydropyran-4-ylmethyl)-6,15-bis (trifluoromethyl)-19-oxa-3,4,12,18-tetrazatricyclo [12.3.1.12,5] nonadeca-1(18),2,4,14,1 6-pentaen-13-one]
< 500	Cc1ccc(CN2CCCCC[C@](O)(C(F)(F)F)C3=NN=C(O3)c3nc(c(C(F)(F)F)cc3N)C2=O)cc1 [Compound 134, (6R)-17-amino-6-hydroxy-12-(p-tolylmethyl)-6,15-bis (trifluoromethyl)-19-oxa-3,4,12,18-tetrazatricyclo [12.3.1.12,5] nonadeca-1(18),2,4,14,1 6-pentaen-13-one]
< 500	Nc1cc(C(F)(F)F)c2nc1-c1nnc(o1)[C@@](O)(C(F)(F)F)CCCCCN(Cc1ccc(C(F)(F)F)cc1)C2=O [Compound 135, (6R)-17-amino-6-hydroxy-6,15-bis (trifluoromethyl)-12-[[4-(trifluoromethyl)phenyl]methyl]-19-oxa-3,4,12,18-tetrazatricyclo [12.3.1.12,5] nonadeca-1(18),2,4,14,1 6-pentaen-13-one]
< 500	Nc1cc(C(F)(F)F)c2nc1-c1nnc(o1)[C@@](O)(C(F)(F)F)CCCCCN(Cc1ccc(F)cc1)C2=O [Compound 136, (6R)-17-amino-12-[(4-fluorophenyl)methyl]-6-hydroxy-6,15-bis (trifluorom ethyl)-19-oxa-3,4,12,18-tetrazatricyclo [12.3.1.12,5] nonadeca-1(18),2,4,14,1 6-pentaen-13-one]
< 500	Nc1cc(C(F)(F)F)c2nc1-c1nnc(o1)[C@@](O)(C(F)(F)F)CCCCCN(CCc1ccccc1)C2=O [Compound 137, (6R)-17-amino-6-hydroxy-12-(2-phenylethyl)-6,15-bis (trifluoromethyl)-19-oxa-3,4,12,18-tetrazatricyclo [12.3.1.12,5] nonadeca-1(18),2,4,14,1 6-pentaen-13-one]
< 500	COc1cccc(CN2CCCCC[C@](O)(C(F)(F)F)C3=NN=C(O3)c3nc(c(C(F)(F)F)cc3N)C2=O)c1 [Compound 138, (6R)-17-amino-6-hydroxy-12-[(3-methoxyphenyl)methyl]-6,15-bis (trifluorom ethyl)-19-oxa-3,4,12,18-tetrazatricyclo [12.3.1.12,5] nonadeca-1(18),2,4,14,1 6-pentaen-13-one]
< 500	CC(C)c1cccc(CN2CCCCC[C@](O)(C(F)(F)F)C3=NN=C(O3)c3nc(c(C(F)(F)F)cc3N)C2=O)c1 [Compound 139, (6R)-17-amino-6-hydroxy-12-[(3-isopropylphenyl)methyl]-6,15-bis (trifluoromethyl)-19-oxa-3,4,12,18-tetrazatricyclo [12.3.1.12,5] nonadeca-1(18),2,4,14,1 6-pentaen-13-one]
< 500	Cc1cccnc1CN1CCCCC[C@](O)(C(F)(F)F)C2=NN=C(O2)c2nc(c(C(F)(F)F)cc2N)C1=O [Compound 140, (6R)-17-amino-6-hydroxy-12-[(3-methyl-2-pyridyl)methyl]-6,15-bis (trifluoromethyl)-19-oxa-3,4,12,18-tetrazatricyclo [12.3.1.12,5] nonadeca-1(18),2,4,14,1 6-pentaen-13-one]
< 500	Nc1cc(C(F)(F)F)c2nc1-c1nnc(o1)[C@@](O)(C(F)(F)F)CCCCCN(Cc1ccccc1OC(F)(F)F)C2=O [Compound 141, (6R)-17-amino-6-hydroxy-12-[[2-(trifluoromethoxy)phenyl]methyl]-6,15-bis (trifluoromethyl)-19-oxa-3,4,12,18-tetrazatricyclo [12.3.1.12,5] nonadeca-1(18),2,4,14,1 6-pentaen-13-one]
< 500	Nc1cc(C(F)(F)F)c2nc1-c1nnc(o1)[C@@](O)(C(F)(F)F)CCCCCN(Cc1cccc(OC(F)(F)F)c1)C2=O [Compound 142, (6R)-17-amino-6-hydroxy-12-[[3-(trifluoromethoxy)phenyl]methyl]-6,15-bis (trifluoromethyl)-19-oxa-3,4,12,18-tetrazatricyclo [12.3.1.12,5] nonadeca-1(18),2,4,14,1 6-pentaen-13-one]
< 500	CC(C)Oc1ccc(CN2CCCCC[C@](O)(C(F)(F)F)C3=NN=C(O3)c3nc(c(C(F)(F)F)cc3N)C2=O)cc1 [Compound 143, (6R)-17-amino-6-hydroxy-12-[(4-isopropoxyphenyl)methyl]-6,15-bis (trifluoromethyl)-19-oxa-3,4,12,18-tetrazatricyclo [12.3.1.12,5] nonadeca-1(18),2,4,14,1 6-pentaen-13-one]
< 500	Nc1cc(C(F)(F)F)c2nc1-c1nnc(o1)[C@@](O)(C(F)(F)F)CCCCCN(Cc1ccc(Cl)cc1)C2=O [Compound 144, (6R)-17-amino-12-[(4-chlorophenyl)methyl]-6-hydroxy-6,15-bis (trifluoromethyl)-19-oxa-3,4,12,18-tetrazatricyclo [12.3.1.12,5] nonadeca-1(18),2,4,14,1 6-pentaen-13-one]
< 500	Nc1cc(C(F)(F)F)c2nc1-c1nnc(o1)[C@@](O)(C(F)(F)F)CCCCCN(Cc1ccc(F)cc1F)C2=O [Compound 145, (6R)-17-amino-12-[(2,4-difluorophenyl)methyl]-6-hydroxy-6,15-bis (trifluoromethyl)-19-oxa-3,4,12,18-tetrazatricyclo [12.3.1.12,5] nonadeca-1(18),2,4,14,1 6-pentaen-13-one]
< 500	Nc1cc(C(F)(F)F)c2nc1-c1nnc(o1)[C@@](O)(C(F)(F)F)CCCCCN(Cc1ccc(F)c(F)c1)C2=O [Compound 146, (6R)-17-amino-12-[(3,4-difluorophenyl)methyl]-6-hydroxy-6,15-bis (trifluoromethyl)-19-oxa-3,4,12,18-tetrazatricyclo [12.3.1.12,5] nonadeca-1(18),2,4,14,1 6-pentaen-13-one]
< 500	Nc1cc(C(F)(F)F)c2nc1-c1nnc(o1)[C@@](O)(C(F)(F)F)CCCCCN(Cc1ccc(C(F)(F)F)nc1)C2=O [Compound 147, (6R)-17-amino-6-hydroxy-6,15-bis (trifluoromethyl)-12-[[6-(trifluoromethyl)-3-pyridyl]methyl]-19-oxa-3,4,12,18-tetrazatricyclo [12.3.1.12,5] nonadeca-1(18),2,4,14,1 6-pentaen-13-one]
< 500	CCCc1cccc(CN2CCCCC[C@](O)(C(F)(F)F)C3=NN=C(O3)c3nc(c(C(F)(F)F)cc3N)C2=O)c1 [Compound 148, (6R)-17-amino-6-hydroxy-12-[(3-propylphenyl)methyl]-6,15-bis (trifluoromethyl)-19-oxa-3,4,12,18-tetrazatricyclo [12.3.1.12,5] nonadeca-1(18),2,4,14,1 6-pentaen-13-one]
< 500	Nc1cc(C(F)(F)F)c2nc1-c1nnc(o1)[C@@](O)(C(F)(F)F)CCCCCN(Cc1cccc(Cl)c1)C2=O [Compound 149, (6R)-17-amino-12-[(3-chlorophenyl)methyl]-6-hydroxy-6,15-bis (trifluoromethyl)-19-oxa-3,4,12,18-tetrazatricyclo [12.3.1.12,5] nonadeca-1(18),2,4,14,1 6-pentaen-13-one]
< 500	CC1(C)Cc2cc(CN3CCCCC[C@](O)(C(F)(F)F)C4=NN=C(O4)c4nc(c(C(F)(F)F)cc4N)C3=O)ccc2O1 [Compound 150, (6R)-17-amino-12-[(2,2-dimethyl-3H-benzofuran-5-yl)methyl]-6-hydroxy-6,15-bis (trifluoromethyl)-19-oxa-3,4,12,18-tetrazatricyclo [12.3.1.12,5] nonadeca-1(18),2,4,14,1 6-pentaen-13-one]
< 500	Nc1cc(C(F)(F)F)c2nc1-c1nnc(o1)[C@@](O)(C(F)(F)F)CCCCCN(Cc1ccc(C3(C(F)(F)F)CC3)cc1)C2=O [Compound 151]
< 500	Nc1cc(C(F)(F)F)c2nc1-c1nnc(o1)[C@@](O)(C(F)(F)F)CCCCCN([C@H]1C[C@@H](c3ccccc3)C1)C2=O [Compound 152, (6R)-17-amino-6-hydroxy-12-(3-phenylcyclobutyl)-6,15-bis (trifluoromethyl)-19-oxa-3,4,12,18-tetrazatricyclo [12.3.1.12,5] nonadeca-1(18),2,4,14,1 6-pentaen-13-one]
< 500	Nc1cc(C(F)(F)F)c2nc1-c1nnc(o1)[C@@](O)(C(F)(F)F)CCCCCN(Cc1ccc(OC(F)(F)F)c(Cl)c1)C2=O [Compound 153, (6R)-17-amino-12-[[3-chloro-4-(trifluoromethoxy)phenyl]methyl]-6-hydroxy-6,15-bis(trifluoromethyl)-19-oxa-3,4,12,18-tetrazatricyclo [12.3.1.12,5] nonadeca-1(18),2,4,14,1 6-pentaen-13-one]
